The results in this text go back to ChEMBL document CHEMBL5665443, “Enzyme Inhibitor Single Concentration assay results for EUbOPEN Chemogenomics Library” (2024).

Holding throughout (settings): Hit No
Assay [1] deals with Methyl-CpG-binding domain protein 4 (Homo sapiens) (UniProt O95243).
Description: Inhibition of MBD4 by quantifying inhibition of MBD4-mediated cleavage and dissociation of quenched duplex DNA oligonucleotides, measured as fluorescence at 594 nm. To generate a functional strand incision and increase turn-over this assay is coupled to APE1.
The target of assay [2] is T1, Adenine DNA glycosylase (Homo sapiens) (UniProt Q9UIF7).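 Note: human MUTYH activity read as 594 nm fluorescence from cleavage and release of a quenched DNA duplex, coupled with APE1 for strand incision, lower signal meaning inhibition.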
T1 sequence (whole entry): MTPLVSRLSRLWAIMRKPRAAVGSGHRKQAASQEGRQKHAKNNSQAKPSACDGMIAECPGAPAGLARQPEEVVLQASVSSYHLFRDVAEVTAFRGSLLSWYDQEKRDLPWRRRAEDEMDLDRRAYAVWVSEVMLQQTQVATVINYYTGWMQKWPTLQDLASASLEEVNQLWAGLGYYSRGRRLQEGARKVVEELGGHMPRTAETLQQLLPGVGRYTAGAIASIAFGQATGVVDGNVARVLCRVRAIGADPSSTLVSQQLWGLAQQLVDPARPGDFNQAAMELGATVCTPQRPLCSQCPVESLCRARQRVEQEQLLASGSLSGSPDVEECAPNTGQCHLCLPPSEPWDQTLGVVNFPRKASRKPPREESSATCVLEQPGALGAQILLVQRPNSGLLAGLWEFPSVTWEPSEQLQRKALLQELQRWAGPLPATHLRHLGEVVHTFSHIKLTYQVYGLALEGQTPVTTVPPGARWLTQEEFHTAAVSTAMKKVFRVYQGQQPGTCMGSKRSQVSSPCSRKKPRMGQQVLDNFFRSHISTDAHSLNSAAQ
Description: Inhibition of MUTYH by quantifying inhibition of MUTYH-mediated cleavage and dissociation of quenched duplex DNA oligonucleotides, measured as fluorescence at 594 nm. To generate a functional strand incision and increase turn-over this assay is coupled to APE1.

Assay [3] deals with T2, Endonuclease 8-like 2 (Homo sapiens) (UniProt Q969S2).
T2 sequence (whole entry): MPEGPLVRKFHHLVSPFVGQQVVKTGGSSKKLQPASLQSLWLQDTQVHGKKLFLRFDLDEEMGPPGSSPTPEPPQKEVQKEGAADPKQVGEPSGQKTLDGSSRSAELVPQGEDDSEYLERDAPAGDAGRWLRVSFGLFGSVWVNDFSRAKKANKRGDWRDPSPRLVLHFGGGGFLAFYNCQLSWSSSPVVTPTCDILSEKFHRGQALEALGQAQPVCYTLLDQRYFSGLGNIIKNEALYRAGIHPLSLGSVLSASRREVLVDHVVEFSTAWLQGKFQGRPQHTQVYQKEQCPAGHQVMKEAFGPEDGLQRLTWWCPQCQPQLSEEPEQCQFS
Description: Inhibition of NEIL2 by quantifying inhibition of NEIL2-mediated cleavage and dissociation of quenched duplex DNA oligonucleotides, measured as fluorescence at 594 nm.

In assay [4] the target is T3, Endonuclease III-like protein 1 (Homo sapiens) (UniProt P78549).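 Note: enzyme assay tracking NTHL1 cutting and release of a quenched double-stranded DNA oligo substrate, read as fluorescence at 594 nm.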
T3 sequence (whole entry): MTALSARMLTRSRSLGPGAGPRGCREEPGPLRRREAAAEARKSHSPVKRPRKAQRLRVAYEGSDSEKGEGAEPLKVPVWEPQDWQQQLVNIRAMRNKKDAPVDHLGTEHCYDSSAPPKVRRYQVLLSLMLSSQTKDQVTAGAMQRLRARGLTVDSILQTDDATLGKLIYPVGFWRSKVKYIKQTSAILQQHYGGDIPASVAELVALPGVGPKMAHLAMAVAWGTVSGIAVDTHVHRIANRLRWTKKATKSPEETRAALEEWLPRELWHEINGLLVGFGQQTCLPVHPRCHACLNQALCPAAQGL
Description: Inhibition of NTHL1 by quantifying inhibition of NTHL1-mediated cleavage and dissociation of quenched duplex DNA oligonucleotides, measured as fluorescence at 594 nm.

Assay [5] concerns the target N-glycosylase/DNA lyase (Homo sapiens) (UniProt O15527).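 Note: OGG1 cleavage of a quenched duplex DNA oligonucleotide, coupled to APE1 for strand incision, read as fluorescence at 594 nm.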
Description: Inhibition of OGG1 by quantifying inhibition of OGG1-mediated cleavage and dissociation of quenched duplex DNA oligonucleotides, measured as fluorescence at 594 nm. To generate a functional strand incision and increase turn-over this assay is coupled to APE1.
The target of assay [6] is T4, Single-strand selective monofunctional uracil DNA glycosylase (Homo sapiens) (UniProt Q53HV7).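 Note: enzymatic SMUG1 assay coupled with APE1, reading fluorescence at 594 nm released when a quenched double-stranded DNA oligonucleotide substrate is cleaved and separated.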
T4 sequence (whole entry): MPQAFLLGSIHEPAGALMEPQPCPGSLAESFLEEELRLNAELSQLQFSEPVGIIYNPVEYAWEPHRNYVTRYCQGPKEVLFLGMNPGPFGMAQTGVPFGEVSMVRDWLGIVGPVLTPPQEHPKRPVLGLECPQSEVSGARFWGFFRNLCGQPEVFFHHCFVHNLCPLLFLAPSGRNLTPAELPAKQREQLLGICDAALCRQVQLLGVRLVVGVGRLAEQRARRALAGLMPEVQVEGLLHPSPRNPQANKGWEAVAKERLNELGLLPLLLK
Description: Inhibition of SMUG1 by quantifying inhibition of SMUG1-mediated cleavage and dissociation of quenched duplex DNA oligonucleotides, measured as fluorescence at 594 nm. To generate a functional strand incision and increase turn-over this assay is coupled to APE1.

The target of assay [7] is G/T mismatch-specific thymine DNA glycosylase (Homo sapiens) (UniProt Q13569).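 Note: human TDG cleavage of quenched duplex DNA oligonucleotides coupled to APE1, strand release read as fluorescence at 594 nm, inhibition of TDG activity.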
Chain of G/T mismatch-specific thymine DNA glycosylase (Homo sapiens) (Q13569 whole entry): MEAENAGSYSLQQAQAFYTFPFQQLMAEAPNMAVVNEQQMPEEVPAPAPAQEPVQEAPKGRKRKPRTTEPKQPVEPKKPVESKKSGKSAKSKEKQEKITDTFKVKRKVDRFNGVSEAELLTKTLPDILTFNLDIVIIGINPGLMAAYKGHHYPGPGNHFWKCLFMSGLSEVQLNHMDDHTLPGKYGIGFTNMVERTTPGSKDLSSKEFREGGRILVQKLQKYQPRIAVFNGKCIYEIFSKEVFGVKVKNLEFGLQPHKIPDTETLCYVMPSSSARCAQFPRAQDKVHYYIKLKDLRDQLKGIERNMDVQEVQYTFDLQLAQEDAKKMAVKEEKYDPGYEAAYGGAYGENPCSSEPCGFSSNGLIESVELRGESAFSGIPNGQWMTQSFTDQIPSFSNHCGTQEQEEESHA
Description: Inhibition of TDG by quantifying inhibition of TDG-mediated cleavage and dissociation of quenched duplex DNA oligonucleotides, measured as fluorescence at 594 nm. To generate a functional strand incision and increase turn-over this assay is coupled to APE1.
Assay [8] addresses Uracil-DNA glycosylase (Homo sapiens) (UniProt P13051).
Description: Inhibition of UNG by quantifying inhibition of UNG-mediated cleavage and dissociation of quenched duplex DNA oligonucleotides, measured as fluorescence at 594 nm. To generate a functional strand incision and increase turn-over this assay is coupled to APE1.

Chain of Uracil-DNA glycosylase (Homo sapiens) (P13051 whole entry): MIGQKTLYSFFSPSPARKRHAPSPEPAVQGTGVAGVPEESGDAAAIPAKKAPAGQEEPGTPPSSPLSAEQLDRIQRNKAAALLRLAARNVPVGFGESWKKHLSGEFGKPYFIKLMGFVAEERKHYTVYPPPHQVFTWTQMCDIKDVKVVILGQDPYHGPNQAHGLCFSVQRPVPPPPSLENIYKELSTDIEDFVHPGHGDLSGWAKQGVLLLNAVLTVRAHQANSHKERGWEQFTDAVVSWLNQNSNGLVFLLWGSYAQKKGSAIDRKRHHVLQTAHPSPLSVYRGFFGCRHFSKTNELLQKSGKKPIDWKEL
Chain of Methyl-CpG-binding domain protein 4 (Homo sapiens) (O95243 whole entry, the tested form may be a part): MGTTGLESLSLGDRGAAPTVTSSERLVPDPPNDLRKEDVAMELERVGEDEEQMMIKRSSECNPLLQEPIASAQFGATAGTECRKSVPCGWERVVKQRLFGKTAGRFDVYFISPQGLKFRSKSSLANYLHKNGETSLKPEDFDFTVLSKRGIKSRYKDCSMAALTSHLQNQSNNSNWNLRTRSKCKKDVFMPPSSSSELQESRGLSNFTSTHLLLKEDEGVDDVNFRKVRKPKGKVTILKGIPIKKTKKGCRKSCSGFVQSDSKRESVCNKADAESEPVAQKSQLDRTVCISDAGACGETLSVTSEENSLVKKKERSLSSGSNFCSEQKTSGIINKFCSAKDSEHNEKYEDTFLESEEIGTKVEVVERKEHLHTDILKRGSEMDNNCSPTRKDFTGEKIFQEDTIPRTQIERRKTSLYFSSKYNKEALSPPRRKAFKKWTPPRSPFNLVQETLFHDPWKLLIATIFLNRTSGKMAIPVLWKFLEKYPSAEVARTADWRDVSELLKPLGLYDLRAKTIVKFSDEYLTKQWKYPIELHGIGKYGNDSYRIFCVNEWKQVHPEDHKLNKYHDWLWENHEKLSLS
Chain of N-glycosylase/DNA lyase (Homo sapiens) (O15527 whole entry): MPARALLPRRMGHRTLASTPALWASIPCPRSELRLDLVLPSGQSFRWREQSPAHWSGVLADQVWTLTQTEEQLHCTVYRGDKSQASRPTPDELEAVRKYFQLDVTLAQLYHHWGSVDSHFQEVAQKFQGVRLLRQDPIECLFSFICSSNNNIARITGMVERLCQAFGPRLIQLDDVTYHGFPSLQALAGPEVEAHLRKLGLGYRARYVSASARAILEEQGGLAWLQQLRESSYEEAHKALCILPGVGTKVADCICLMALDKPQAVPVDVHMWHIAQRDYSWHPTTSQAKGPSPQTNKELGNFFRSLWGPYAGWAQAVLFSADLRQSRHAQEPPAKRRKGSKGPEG

Consider `CN1CCN(C(=O)C(C)(C)c2ccc(C(=O)Nc3cn4cc(-c5cc(C(C)(C)C)cc(C(C)(C)C)c5)ccc4n3)cc2)CC1`, for which the inhibition in assay [1] (Compound Concentration 1.0 uM) was -6.71%; in assay [1] (Compound Concentration 10.0 uM), -6.81%; in assay [2] (Compound Concentration 1.0 uM) it was -8.55%; in assay [3] (Compound Concentration 10.0 uM), -7.12%; in assay [4] (Compound Concentration 1.0 uM) it was -0.61%; in assay [4] (Compound Concentration 10.0 uM) it was -6.55%. The inhibition in assay [5] (Compound Concentration 10.0 uM) amounted to 18.8%; in assay [6] (Compound Concentration 1.0 uM) it was 20%; in assay [6] (Compound Concentration 10.0 uM), 11.1%; in assay [7] (Compound Concentration 1.0 uM), 41%; in assay [7] (Compound Concentration 10.0 uM) it was 15.4%; in assay [8] (Compound Concentration 1.0 uM), 3.16%. For the same molecule, the inhibition in assay [8] (Compound Concentration 10.0 uM) turned out to be 2.56%.

`COc1nc2ccc([C@@](O)(c3ccccc3)C3CCN(C(C)=O)CC3)cc2c(Cl)c1Cc1ccc(-n2cccn2)cc1`: the inhibition in assay [1] (Compound Concentration 10.0 uM) is 64.6%; in assay [2] (Compound Concentration 10.0 uM), 5.36%; in assay [3] (Compound Concentration 10.0 uM), -7.63%; in assay [4] (Compound Concentration 10.0 uM), -1.29%; in assay [5] (Compound Concentration 10.0 uM) it was 10.5%; in assay [6] (Compound Concentration 10.0 uM), 22.3%. Also, the values for the inhibition in assay [7] (Compound Concentration 10.0 uM) and in assay [8] (Compound Concentration 10.0 uM) were 48.5% and 10.2%, respectively.

For the molecule `CC(=O)N1CCC(c2ccc(C(=O)NC3=NCCN3)cc2C(F)(F)F)CC1`, the inhibition in assay [1] (Compound Concentration 10.0 uM) was 57%; in assay [2] (Compound Concentration 10.0 uM) it was 6.4%; in assay [3] (Compound Concentration 10.0 uM), 6.91%; in assay [4] (Compound Concentration 10.0 uM), 13.2%; in assay [5] (Compound Concentration 10.0 uM) it was -3.66%; in assay [6] (Compound Concentration 10.0 uM), 11.2%. For the same molecule, the figures for the inhibition in assay [7] (Compound Concentration 10.0 uM) and in assay [8] (Compound Concentration 10.0 uM) were 48.7% and -0.0445%, respectively.

Take `CCS(=O)(=O)c1cc2cc(C[C@](O)(CC(C)(C)c3ccc(F)cc3C(N)=O)C(F)(F)F)[nH]c2cn1`: the inhibition in assay [1] (Compound Concentration 10.0 uM) was 51.2%; in assay [2] (Compound Concentration 10.0 uM) it was -1.09%; in assay [3] (Compound Concentration 10.0 uM), -8.14%; in assay [4] (Compound Concentration 10.0 uM) it was 0.685%; in assay [5] (Compound Concentration 10.0 uM), -0.262%; in assay [6] (Compound Concentration 10.0 uM), 15.9%. Also, the results for the inhibition in assay [7] (Compound Concentration 10.0 uM) and in assay [8] (Compound Concentration 10.0 uM) were 97.5% and -6.06%, respectively.

On to `Cn1cc(C(=O)O)c2ccc(N3CCC(OCc4c(-c5c(Cl)cccc5Cl)noc4C4CC4)CC3)cc21`, for which the inhibition in assay [1] (Compound Concentration 10.0 uM) was 64.1%; in assay [2] (Compound Concentration 10.0 uM), 2.96%; in assay [3] (Compound Concentration 10.0 uM), 0.531%; in assay [4] (Compound Concentration 10.0 uM) it was 8.57%; in assay [5] (Compound Concentration 10.0 uM), 24%; in assay [6] (Compound Concentration 10.0 uM), -2.05%. Further, the inhibition was 99.9% in assay [7] (Compound Concentration 10.0 uM) and -3.65% in assay [8] (Compound Concentration 10.0 uM).

Consider `O=C(O)[C@H]1[C@H](Cn2nnc3ccccc3c2=O)CC[C@@H]1C(=O)c1ccc(OCCC2CCOCC2)cc1`, for which the inhibition in assay [1] (Compound Concentration 1.0 uM) was 58.9%; in assay [2] (Compound Concentration 1.0 uM) it was 7.33%; in assay [3] (Compound Concentration 1.0 uM) it was -9.93%; in assay [4] (Compound Concentration 1.0 uM), 2%; in assay [5] (Compound Concentration 1.0 uM), 2.93%; in assay [6] (Compound Concentration 1.0 uM) it was 17%. Besides, the values for the inhibition in assay [7] (Compound Concentration 1.0 uM) and in assay [8] (Compound Concentration 1.0 uM) were 51.4% and -2.04%, respectively.

As for `O=C1CCc2cc(Nc3cc(OC4CCOCC4)c([N+](=O)[O-])cc3Cl)ccc2N1`, the inhibition in assay [1] (Compound Concentration 10.0 uM) worked out at 65.2%; in assay [2] (Compound Concentration 10.0 uM), 12.7%; in assay [3] (Compound Concentration 10.0 uM), 4.87%; in assay [4] (Compound Concentration 10.0 uM), 5.94%; in assay [5] (Compound Concentration 10.0 uM), 46.7%; in assay [6] (Compound Concentration 10.0 uM), 24.3%. The inhibition in assay [7] (Compound Concentration 10.0 uM) was found to be 79.3%; in assay [8] (Compound Concentration 10.0 uM), 4.09%.

In the case of `CC1=C(C#N)C(c2ccc3[nH]nc(C)c3c2)C(C#N)=C(C)N1`, the inhibition in assay [1] (Compound Concentration 10.0 uM) was 24.9%; in assay [2] (Compound Concentration 10.0 uM), 18.6%; in assay [3] (Compound Concentration 10.0 uM) it was 1.25%; in assay [4] (Compound Concentration 10.0 uM), 7.43%; in assay [5] (Compound Concentration 10.0 uM), 4.91%; in assay [6] (Compound Concentration 10.0 uM), 17.6%. The inhibition stood at 72.9% in assay [7] (Compound Concentration 10.0 uM) and 2.96% in assay [8] (Compound Concentration 10.0 uM).

Take `CCn1c(=O)c(C)cn(Cc2nnc(-c3ccc(F)c(OC)c3F)s2)c1=O`: the inhibition in assay [1] (Compound Concentration 10.0 uM) was 72.7%; in assay [2] (Compound Concentration 10.0 uM), 5.03%; in assay [3] (Compound Concentration 10.0 uM), -5.85%; in assay [4] (Compound Concentration 10.0 uM) it was -4.57%; in assay [5] (Compound Concentration 10.0 uM), 7.36%; in assay [6] (Compound Concentration 10.0 uM), 17.9%. Moreover, the inhibition worked out at 20.6% in assay [7] (Compound Concentration 10.0 uM) and 2.54% in assay [8] (Compound Concentration 10.0 uM).

For orientation: inhibition means the drop in the measured response relative to a control, in per cent.
